Test [1] concerns HIV-1. As to conditions: Wild et al. 1994; cited from earlier work.
Test [2] concerns the target T1, PI2F + PI2HN (Human parainfluenza 2 virus, UniProt P25467).
T1 construct: expressed in transfected cells; host or cells: HeLa-T4 cells infected with vTF7.3
T1 sequence (P25467 107-551 limits assumed): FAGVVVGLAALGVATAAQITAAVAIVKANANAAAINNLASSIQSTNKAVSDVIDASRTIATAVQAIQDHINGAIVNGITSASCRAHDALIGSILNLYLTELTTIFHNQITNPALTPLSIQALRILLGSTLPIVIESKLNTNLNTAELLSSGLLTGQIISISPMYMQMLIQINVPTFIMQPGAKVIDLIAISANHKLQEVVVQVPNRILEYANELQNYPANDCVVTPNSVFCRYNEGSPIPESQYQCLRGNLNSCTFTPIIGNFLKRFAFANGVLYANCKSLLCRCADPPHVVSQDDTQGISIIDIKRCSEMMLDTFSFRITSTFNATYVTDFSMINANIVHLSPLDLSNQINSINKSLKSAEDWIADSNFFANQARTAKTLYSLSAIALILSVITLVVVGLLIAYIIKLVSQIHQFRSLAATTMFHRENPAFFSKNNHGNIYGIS
T1 sequence (P25467 24-106 partner limits assumed): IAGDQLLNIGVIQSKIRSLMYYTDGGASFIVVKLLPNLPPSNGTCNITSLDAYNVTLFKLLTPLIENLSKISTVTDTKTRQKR
The class given is cell-based, parainfluenza virus type 2. As to conditions: 18 hr.

Test [3] concerns PI2 virus. The test can be described thus: Surface immunofluorescence of PI2 antigen on infected HeLa-T4 cells (viral spread). The class given is cell-based, parainfluenza virus type 2. As to conditions: low m.o.i. infection, incubated with peptide. How it is done: Surface immunofluorescence. Indirect immunofluorescence was performed as described by Paterson et al. 1989. In general, HeLa-T4 cells were grown on glass coverslips in 24-well plates and infected with wild-type PI2 virus as described above. At indicated times post infection, cells were washed with ice-cold PBS three times before being fixed with 1% paraformaldehyde in PBS. Rabbit anti-PI2 antibody was added onto cell monolayers, and cells were then incubated at 4° C. for 30 min. Cells were washed with ice-cold PBS three times, and then goat anti-rabbit immunoglobulin G fluorescein-conjugated antibody (Southern Biotechnology Associates, Inc., Birmingham, Ala.) was added and was then incubated at 4° C. for 30 min. Cell surface fluorescence was examined by fluorescence microscopy with a Nikon Optiphot microscope.
To further confirm that the F peptides inhibit viral spread, we examined the distribution of infected cells by surface immunofluorescence at intervals post low m.o.i. infection in the presence or absence of F peptides.

Test [4] has as its system PI2 virus. The test can be described thus: Inhibition of plaque formation on Vero cells (viral entry), PI2. The class given is cell-based, parainfluenza virus type 2. The procedure:
Inhibition of plaque formation. A series of 2-fold dilutions of F peptides together with appropriately diluted PI2 or PI3 virus were added to monolayers of Vero cells. After 1 h incubation at 37° C., the inoculum was removed and overlaid with 2% white agar mixed at 1:1 ratio with 2XDMEM containing 2% FBS. Three days after overlying, red agar mixed at a 1:1 ratio with 2XDMEM containing 2% FBS was overlaid to stain the cells. Plaque numbers were counted one day after neutral red staining and recorded. The Reed-Muench method of estimating 50% endpoint [Welkos, S. et al., (1994) Methods in Enzymology. 235:29-39] was used to calculate the F peptide 50% effective concentration (EC50) value.
F peptides inhibit viral spread. To determine whether the F peptide interferes with the viral entry process, a plaque assay was performed by inoculating cells with virus and peptide together at 37° C. for 1 h, and then overlaying with agar without the addition of peptide. At 10^4 dilution of the PI2 virus stock, 80 μM of the 2F1B34 peptide (SEQ ID NO:21) caused an 80% reduction in number of plaques. Similarly, at 10^5 dilution of the PI3 virus stock, 100 μM of the 3F1B35 peptide (SEQ ID NO:23) caused a 70% reduction in number of plaques. Furthermore, the reduction in the number of viral plaques was correlated with increasing concentration of peptide incubated with the virus. […]

In test [5] the test system is PI2 virus. The class given is cell-based, parainfluenza virus type 2.
The test system of test [6] is PI2 virus. The test can be described thus: Inhibition of virus production (released virus titer) in HeLa-T4 cells, PI2. The class given is cell-based, parainfluenza virus type 2. To be noted: 48 h post infection; m.o.i. 0.1; 80 μM peptide (FIG. 10); culture supernatant.
The test system of test [7] is PI2 virus. The test is described as follows: Plaque size reduction on Vero cells, peptide in agar overlay. To be noted: 80 μM peptide in agar overlay after 1 h absorption; control cells 3 mm; three days. It counts as cell-based, parainfluenza virus type 2. How it is done:
FIGS. 11A and 11B Plaque size reduction by F peptides. Plaque assay was performed on the Vero cells using PI2 virus. After 1 h absorption at 37° C., inoculum was removed and cells overlaid with a 1:1 mixture of 2% white agar with 2XDMEM containing 2% FBS (A) without addition of F peptide, or (B) with addition of 80 μM of 2F1B34 in the overlay agar. Three days after overlaying, the agar was removed and the monolayer of cells was stained with crystal violet.
As another indication of a reduction in spread of virus under condition of multiple cycle replication, the effect of the peptides on plaque size was determined.

Regarding enfuvirtide, the “potency against cell-cell fusion versus infection by cell-free virus” value in test [1] is reported as “more potent inhibitor of cell-cell fusion than of infection by cell-free virus”.
As to “2F1B34: PI2F peptide from the beginning of the transmembrane domain to include the entire heptad repeat B region (DLSNQINSINKSLKSAEDWIADSNFFANQARTAK)”, the “inhibition of cell fusion induced by coexpression of PI2 F plus PI2 HN” value in test [2] is recorded as “completely inhibit”. In addition, in test [3], the “cells expressing PI2 antigen on the surface at 18 h” value was “only few cells were expressing PI2 antigen”; the “numbers of cells showing PI2 antigen expression on the surface at 24 h and 48 hpi” value is “no increase in numbers of cells showing antigen expression”. The “reduction in number of plaques, PI2” value in test [4] (80 μM peptide with virus 1 h at 37° C., 10^4 dilution of the PI2 virus stock, overlay without peptide) came out at 80%. Further, the EC50 in test [4] (Vero cells, Reed-Muench method, read-out: 50% effective concentration (EC50), plaque number, PI2) was 53.8 µM. In addition, in test [5] (incubated with peptide, concentration not given), the “syncytium formation / inhibition of cell fusion in PI2 infected HeLa-T4 cells (in words)” value is on record as “no syncytia were seen”. In test [5] (peptide concentration as low as 80 μM, 24 h post infection, m.o.i. 0.1), the “inhibition of PI2 virus-induced cell fusion” value is on record as “completely inhibited”. For the same substance, the “decrease in the viral titer, PI2” value in test [6] is recorded as 15 fold. Besides, the “plaque size (diameter)” value in test [7] worked out at 1.5 mm.

The record behind these values is patent US5969094A, “Anti-paramyxovirus screening method and vaccine” (Emory University, priority 1996, dated 1999).
